In patent publication US20110039779A1, “IGF-1R BINDING PROTEINS AND ANTAGONISTS” (priority 2007, published 2011):
Several values for one entry are separate records, joined by “and”; a condition that tells them apart may be missing. Identical values can stand only once. Like-named read-outs stand apart in the source and are kept apart here. Values belong to the substance of their own block, whether it stands above or below them.

Columns and labels:
[1] = test system: SW480 cells; assay type: cell-based
Procedure: For cell growth/density studies, a mitochondrial activity assay was used, as exemplified by the following. Cells (SW480, MCF-7S8) were propagated in complete medium (DME: F12, 10% FCS (SW 480) or 5% FCS (MCF-7S8, P/S)), trypsinized, and seeded in 96 well plates as 10,000 cells/well in medium with 0.5% FCS. All wells in the periphery were omitted and only filled with medium. […] All treatments are made in triplicates. […] Treatment was continued for 48 hours (SW480 cells) or 72 hours (MCF-7S8 cells) before quantification of the cell density. Media was exchanged each day. Media and peptides were diluted in DMSO. When measuring cell density, the volume of each well was adjusted to […] Pre-diluted WST-1 (1 ml+1.5 ml DME:F12) was added as 25 μL to each well including background samples. Three wells with media only served as background controls. The cells were incubated for 90 min protected against light in an incubator.

[2] = target: MCF7 cells (Homo sapiens, UniProt P08069); assay: antagonism assay in starved MCF7 cells, luminescence viability, 72 hrs; assay type: cell-based; conditions: Table 9
Procedure: Additional binding and antagonism assays using candidate peptides were performed. […] Cell viability was determined by luminescence assay and IC50 was calculated using standard techniques.

[3] = target: T1, purified HIGF-1R (Homo sapiens, UniProt P08069); assay: IGF-1R activation kinase assay; assay type: biochemical; conditions: FIG. 2
T1 construct: HIGF-1R was purified from a cell culture of BHK cells stably transfected with IGF-1R cDNA; made in house; host or cells: BHK cells stably transfected with IGF-1R cDNA
Procedure: For determining IGF-1R activation with test peptides, a kinase assay, generally using the following conditions was employed. A solution of each test peptide in kinase buffer (Hepes 100 mM (pH 8.0), MgCl2 8 mM, MnCl2 6 mM, Triton X100 0.1% v/v, BSA 0.2% w/v, 4 μg/ml IRS-1 peptide (Biotin-[…] in PBS+1 mg/ml)) was prepared. Samples were mixed in a microtiter plate in triplicate. 50 μl 2× kinase buffer was added into each well. […] Volume was adjusted to 88 μL, before addition of purified HIGF-1R (2 μl/well). Plates were shaken and incubated for 50 min. at room temperature (RT). DTT and 10 μl/well ATP were added and the wells incubated for 10 min. before stopping the reaction by adding 10 μl stop-buffer (50 mM EDTA (pH 8.0))/well and shaking. The samples were then transferred to streptavidin coated plates and incubated for 1 hour at RT. The coated plates were aspirated and washed 3 times with TBS-T. […] P-tyr Ab-PO (Phosphotyrosine-RC20:HRPO (1:1000) in TBS-T) was added and each plate was incubated for 30 min at RT. The plates were aspirated and washed 3 times with TBS-T. 100 μl TMB-One-substrate (Kem-En-Tec Diagnostics A/S—Denmark) (preheated to RT) was then added and the plates further incubated for approximately 20 min at RT. This reaction was stopped by adding 10 μl H2SO4 and the plates were read in an ELISA-reader at […] within 5-10 min. thereafter. […]

[4] = test system: MAPK44; assay: downstream signaling in L6 cells: MAPK44; assay type: cell-based; conditions: 3 nM IGF-1, read-out: MAPK44, IC50 for down regulation of the stimulation to the basal level
Procedure: (§1) The tyrosine phosphorylation of IRS signaling (the 180 kDa band on a tyrosine phosphor Western blot) as well as activation of effectors MAPK 44 and 42 and PKB were analyzed by using antibodies specific for their active forms using methods substantially similar to those described in Example 14 of the '246 PCT application.
(§2) The effect of select peptides on downstream signaling (MAPK44, MAPK42, PKB/Akt, IRS-1, and IGF-1R) was also measured by studying the signaling in L6 cells predominantly expressing IGF-1R and very limited insulin receptors. […] The antagonistic effect of the peptides can be seen to affect all the downstream signaling from the IGF-1R.

[5] = test system: MAPK42; assay: downstream signaling in L6 cells: MAPK42; assay type: cell-based; conditions: 3 nM IGF-1, read-out: MAPK42, IC50 for down regulation of the stimulation to the basal level
Procedure: as §1, §2

[6] = test system: IGF-IR; assay: downstream signaling in L6 cells: IGF-IR; assay type: cell-based; conditions: 3 nM IGF-1, read-out: IGF-IR, IC50 for down regulation of the stimulation to the basal level
Procedure: as §1, §2

[7] = test system: IRS-1; assay: downstream signaling: IRS-1 tyrosine phosphorylation; assay type: cell-based; conditions: L6 cells; 3 nM IGF-1; read-out: IRS-1, IC50 for down regulation of the stimulation to the basal level
Procedure: as §1, §2

[8] = first value of the cell: concentration needed to blunt the effect of 10 nM IGF-1, cells in words only = effect as reported, 48 hours
[9] = read-out: IC50 in SW480 (M) in presence of IGF-1/alone: alone, second value of the cell: concentration needed to inhibit basal level in 0.5% FCS
[10] = read-out: IC50 in SW480 (M) in presence of IGF-1/alone: in presence of IGF-1, first value of the cell: concentration needed to blunt the effect of 10 nM IGF-1, cells in words only = effect as reported, 48 hours

Chain of MCF7 cells (P08069 31-736): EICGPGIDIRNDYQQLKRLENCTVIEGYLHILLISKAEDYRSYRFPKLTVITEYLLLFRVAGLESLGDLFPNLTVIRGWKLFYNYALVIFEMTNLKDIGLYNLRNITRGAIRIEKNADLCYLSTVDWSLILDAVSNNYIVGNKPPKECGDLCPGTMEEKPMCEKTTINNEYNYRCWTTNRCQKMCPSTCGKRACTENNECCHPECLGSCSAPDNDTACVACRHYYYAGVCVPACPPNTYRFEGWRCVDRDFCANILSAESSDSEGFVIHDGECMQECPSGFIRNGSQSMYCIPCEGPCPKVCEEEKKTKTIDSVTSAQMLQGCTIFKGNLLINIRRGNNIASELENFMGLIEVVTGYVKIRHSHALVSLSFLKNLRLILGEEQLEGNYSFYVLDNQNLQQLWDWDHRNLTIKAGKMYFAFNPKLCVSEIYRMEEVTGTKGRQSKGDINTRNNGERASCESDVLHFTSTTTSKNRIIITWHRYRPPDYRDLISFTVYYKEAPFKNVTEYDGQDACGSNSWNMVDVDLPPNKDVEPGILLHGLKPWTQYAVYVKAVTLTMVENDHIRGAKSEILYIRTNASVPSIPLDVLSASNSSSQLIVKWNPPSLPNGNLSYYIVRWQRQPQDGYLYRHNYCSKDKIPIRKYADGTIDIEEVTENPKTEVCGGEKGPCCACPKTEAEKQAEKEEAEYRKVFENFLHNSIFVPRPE
T1 sequence (P08069 31-736 limits assumed): as the sequence (P08069 31-736) above
T1 sequence (P08069 741-1367 limits assumed): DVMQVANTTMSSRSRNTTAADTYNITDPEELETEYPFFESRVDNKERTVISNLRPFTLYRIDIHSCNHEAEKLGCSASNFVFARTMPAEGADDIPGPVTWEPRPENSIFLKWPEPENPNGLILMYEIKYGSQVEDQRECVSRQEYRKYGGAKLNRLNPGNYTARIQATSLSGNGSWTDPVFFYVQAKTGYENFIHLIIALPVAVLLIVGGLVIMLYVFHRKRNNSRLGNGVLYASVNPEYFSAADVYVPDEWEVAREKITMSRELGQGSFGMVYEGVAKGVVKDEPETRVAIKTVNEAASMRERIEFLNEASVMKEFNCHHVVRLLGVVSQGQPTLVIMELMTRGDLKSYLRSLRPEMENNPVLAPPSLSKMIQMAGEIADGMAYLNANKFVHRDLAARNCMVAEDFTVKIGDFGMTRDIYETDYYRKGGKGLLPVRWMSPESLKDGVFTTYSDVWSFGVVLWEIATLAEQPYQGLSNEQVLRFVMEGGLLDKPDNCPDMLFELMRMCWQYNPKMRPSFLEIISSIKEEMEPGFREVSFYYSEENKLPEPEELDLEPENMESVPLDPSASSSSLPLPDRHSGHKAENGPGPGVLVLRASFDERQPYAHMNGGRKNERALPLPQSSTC

Substance: FFYRCLSRLLGGOLGSRLGLSCIGD [Peptide F139]
- IC50 in SW480 (M) in presence of IGF-1/alone: in presence of IGF-1 [1, 8]: Antagonistic

Substance: GIISQSCPESFYDWFAGQVSDPWWCW-Lig [Peptide F116]
- IC50 in SW480 (M) in presence of IGF-1/alone: in presence of IGF-1 [1, 8]: No effect

Substance: GSLDESFYDWFERQLGKK-Lig [Peptide F118]
- IC50 in SW480 (M) in presence of IGF-1/alone: in presence of IGF-1 [1, 8]: No effect

Substance: GSLDESFYRWFERQLEGGSGGSGLEQERAGTWCENSGRGCLH [Peptide F156]
- IC50 in SW480 (M) in presence of IGF-1/alone: in presence of IGF-1 [1, 8]: No effect

Substance: GVRAMSFYDALVSVLGLGPSG [Peptide F157]
- IC50 in SW480 (M) in presence of IGF-1/alone: in presence of IGF-1 [1, 8]: No effect

Substance: NFYGCLLDLSLGVPSFGWRRRCITA [Peptide F408]
- Activity [2]: Antagonist

- IC50 ([1]; read-out: IC50, inhibition of IGF-1 (10 nM)-induced proliferation of SW480 cells, experiment 13262-027): 1e-06 M
- IC50 ([1]; read-out: IC50, inhibition of IGF-1 (10 nM)-induced proliferation of SW480 cells, experiment 13262-029): 1e-06 M
Substance: QFYGCLLDLSLGVPSPGWRRRCITA [Peptide F393]

Substance: RQWDCRGRPCGDAESFYEWFDQQRS [Peptide F264]
- IC50 [1, 9]: > 1e-05 M
- IC50 [1, 10]: > 1e-05 M

Substance: SAAQLFFQESFYDWFLRQVAESSQPN [Peptide F162]
- IC50 in SW480 (M) in presence of IGF-1/alone: in presence of IGF-1 [1, 8]: No effect

Substance: SACQFDCHENFYDWFAROVSGOAAYG [Peptide F161]
- IC50 in SW480 (M) in presence of IGF-1/alone: in presence of IGF-1 [1, 8]: No effect

Substance: SFYDCLLDLSIGGPSSDWRRRCITA [Peptide F441]
- Activity [2]: Antagonist

Substance: SFYSCLESLVAGPAEKSRGQWEGCRK [Peptide F259]
- inhibition of IGF-1R kinase activation by IGF-1 [3]: completely inhibit
- IC50 [1, 10]: 2e-06 M

Substance: SFYSCLESLVKRPTERSRGQWVGCR [Peptide F320]
- IC50 in SW480 (M) in presence of IGF-1/alone: in presence of IGF-1 [1, 8]: No effect
- IC50 [4]: 1 µM
- IC50 [5]: 1 µM
- IC50 [6]: 2 µM and > 1 µM
- IC50 [7]: > 2 µM

Substance: SFYSCLESLVNGGAERSEGOWEGCR [Peptide F113]
- IC50 ([1]; read-out: IC50, inhibition of IGF-1 (10 nM)-induced proliferation of SW480 cells, experiment 13262-015): > 1e-05 M
- IC50 ([1]; read-out: IC50, inhibition of IGF-1 (10 nM)-induced proliferation of SW480 cells, experiment 13262-016): > 1e-05 M

Substance: SFYSCLESLVNGPAEKSRGQWDGCR [Peptide F249]
- IC50 [1, 9]: > 1e-05 M
- IC50 [1, 10]: > 1e-05 M

Substance: SFYSCLESLVTGPAEKSRGQWEGCRK [Peptide F292]
- IC50 [1, 9]: 1e-06 M
- IC50 [1, 10]: 1e-07 M

Substance: SFYSCLGSLLTGAPQPIRGAWDRCR [Peptide F144]
- IC50 in SW480 (M) in presence of IGF-1/alone: in presence of IGF-1 [1, 8]: No effect

Substance: VEGRGLFYDLLRQLLARRQNG [Peptide F158]
- IC50 in SW480 (M) in presence of IGF-1/alone: in presence of IGF-1 [1, 8]: No effect

Substance: VQDDCRGRPCGDADSFYEWFDQQAS [Peptide F263]
- IC50 [1, 9]: > 1e-06 M
- IC50 [1, 10]: > 1e-06 M
